What was measured:
[1] = In vivo pharmacokinetics study, tail vein; design: species or system SD rats; details: SD, rat, plasma; intravenous, 17 mg kg^−1 Cur, n = 3
Experimental: Pharmacokinetics were studied in SD rats. SD rats were randomly divided into three groups with each group of three rats. […] Blood samples (0.5 mL) were extracted from the rat orbital sinus into heparinized centrifuge tubes at 3, 5, 10, 15, 30, 45, 60, 120 min and then centrifuged at 8000 rpm for 5 min to obtain the upper plasma. After that, Cur in plasma samples were extracted by adding ethyl acetate and vertexing for 5 min, then centrifuged at 5000 rpm for 5 min to get supernatant. Finally, the amount of Cur in the supernatant was measured by high-performance liquid chromatography (HPLC) based on established analytical method (SI). Various pharmacokinetic parameters (AUC, MRT, t1/2, Cmax, CL, and V) were calculated according to the analysis of DAS3.0 software.

[2] = In vitro release of curcumin, membrane dialysis; format: physicochemical; details: 30% ethanol in PBS pH7.4, 37 °C
Experimental: The membrane dialysis method was used for the drug release profile of CTPP–PEG–PCT. […] The end-sealed dialysis bag was placed in 30% ethanol in PBS (0.1 M, pH7.4) was used as dissolution medium at 37 °C, and medium was collected at determined time point. The amount of Cur released in the medium was monitored by UV-vis spectroscopy, and the experiments were repeated for three times.

red blood cells = experiment: Hemolysis test; format: cell-based, mouse; details: 0.15–5 mg mL^−1, 37 °C, 1 hour
Experimental: The mixture was then centrifuged at 3000 rpm for 10 min. Finally, UV spectrophotometer was used to monitor the absorbance at 541 nm to investigate the hemolysis. Deionized water and 0.9% NaCl were used as the positive and negative control, respectively. The hemolysis ratio was calculated as following: [drawing 4] […]

liver fibrosis = experiment: In vivo pharmacodynamic experiment, CCl4 liver fibrosis model; details: CCl4 mice, tail vein twice a week for eight weeks, Cur 17 mg kg^−1
Experimental: The mice were divided into five groups with five in each group randomly. The liver fibrosis model was established by injecting carbon tetrachloride (CCl4, 40% in olive oil, 1 mL kg^−1) intraperitoneally twice a week for four weeks. The mice were only administrated the same dosage of olive oil in control group. […] After treatment through veil tail, the mice were sacrificed and blood and livers were collected for the following study. After embedding in paraffin, the liver samples were cut into 5 μm slices. Then, liver slices were stained with hematoxylin–eosin staining (H&E) and Sirius Red staining solution for 2 h. After dehydration and fixation, the slices were observed and photographed by microscope.

COc1cc(/C=C/C(=O)CC(=O)/C=C/c2ccc(O)c(OC)c2)ccc1O [Cur, Curcumin]
AUC(0-inf) [1]: 5610 ng·h/mL
AUC(0-t) [1]: 5280 ng·h/mL
Cmax [1]: 12900 ± 1510 ng/mL
MRT [1]: 45.9 min
clearance [1]: 50 ± 6 mL/min/kg
half-life [1]: 48.1 ± 14.8 min
in vitro drug release behaviour [2]: released quickly
hemolysis ratio (red blood cells): less than 5%
serum levels of AST and ALT vs saline group (liver fibrosis): decreased significantly

— paper PMC8694685 (RSC Advances, 2021)
